Measured values from patent US20230135945A1, “Method for Measuring Modulation in the Activity of a G Protein-Coupled Receptor” (CISBIO BIOASSAYS, priority 2017, published 2023).
Entries after “also recorded” stand apart in the source; their conditions may differ. Where no end group is shown, it is not given here.

Key:
[1] = target: T1, Delta Opioid GPCR (Homo sapiens, UniProt P41143); assay: Activation test according to format 2B (TR-FRET, full Galpha bound to GTPγS vs empty form), membranes expressing Delta Opioid GPCR and Galphai protein; assay type: biochemical; details: for TR-FRET signal (HTRF ratio), inhibition of agonist activation by antagonist: SNC162 fixed 10 nM
T1 construct: purchased Perkin Elmer 6110549400UA (HEK293)
T1 sequence (P41143 whole entry): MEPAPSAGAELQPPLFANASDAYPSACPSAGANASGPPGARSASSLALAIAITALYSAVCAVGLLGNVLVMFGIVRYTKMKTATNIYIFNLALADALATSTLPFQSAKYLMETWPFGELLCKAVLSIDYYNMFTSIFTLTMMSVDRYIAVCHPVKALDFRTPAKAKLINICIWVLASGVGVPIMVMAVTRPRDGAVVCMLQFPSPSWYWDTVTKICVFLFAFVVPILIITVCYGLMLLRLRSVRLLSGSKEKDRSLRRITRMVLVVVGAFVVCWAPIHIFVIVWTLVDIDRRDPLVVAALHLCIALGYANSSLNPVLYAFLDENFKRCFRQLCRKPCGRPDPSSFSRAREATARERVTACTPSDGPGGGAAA
Protocol: All reagents were diluted in TrisHCl 50 mM pH 7.4, MgCl2 10 mM, NaCl 10 mM, BSA 0.1% buffer. The membranes were prepared 4× to distribute 1 μg/well (except for other specifications). The GDP, GTP or GTPγS nucleotides and test compounds (agonists or antagonists) were pre-mixed and prepared 4× to obtain the final concentrations in the wells mentioned in the graphs. All anti-Galphai reagents used for detection were prepared 4× to target the following final concentrations in the following wells: sdAbs-d2 (50 nM); antibody SC13533-d2 (0.1 nM); antibody SC13533-Lumi4Tb (0.25 nM); antibody DSV36S-d2 (0.1 nM); antibody DSV36S-Lumi4Tb (0.25 nM); antibody DSV3S-d2 (10 nM); antibody DSV39S-d2 (10 nM); antibody DSV26S-Lumi4Tb (0.25 nM); peptide KB1753-Biotin (50 nM) in combination with streptavidin-XL665 (SA-XL) (25 nM) (pre-incubated 30 minutes at room temperature before distribution in plates). • Distribution of reagents in the 384-well plates: • Membranes expressing GPCR and G protein: 5 μL • Nucleotides (GDP or GTP or GTPγS) ±Test compounds (agonists and/or antagonists): 5 μL • Anti-Galphai-acceptor ligand (d2 or XL665): 5 μL • Anti-Galphai-donor ligand (Lumi4Tb): 5 μL
(§1) The plates were incubated at 21° C. for 3 h or 20 h and then the HTRF signal was measured on the PHERAstar reader (BMG Labtech) with the following configuration: • Module: HTRF (Excitation 337nm, Emission 665nm and 620nm) • Excitation: laser, 40 flashes • Reading window: delays: 60 μs—Integration: 400 μs
After activation of GPCR and Galpha protein by a GPCR agonist, the decrease in the proportion of the full Galpha protein form bound to GTP or bound to GTPγS (due to an increase in the proportion of the empty Galpha protein form) is specifically detected using two ligands labeled with RET partners. Activation of GPCR results in a decrease in the RET signal.
In a second step, the ability of a GPCR agonist to modulate the proportion of Galpha protein in empty form was tested with the same membranes and detection ligand pairs. HEK293 cell membranes expressing Delta Opioid GPCR and Galphai protein were incubated with GTPγS (10 nM) and GPCR agonist (SNC162) in increasing concentration. […] In a second condition, activation with a fixed concentration of GPCR agonist SNC162 (10 nM) was inhibited by an increasing concentration of GPCR antagonist (Naltrindole).
On the other hand, membranes (10 μg/wells) of HEK293 or CHO-K1 cells expressing the Delta Opioid GPCR and Galphai protein were incubated with GTPγS (100 nM) alone or in combination with a saturated fixed concentration (1 μM) of the receptor agonist (SNC162).
In a first condition, HEK293 cell membranes expressing Delta Opioid GPCR and Galphai protein were incubated with GTPγS (10 nM) and a GPCR agonist (SNC162) in increasing concentration.

[2] = target: T1, Delta Opioid GPCR; assay: Activation test according to format 1A (TR-FRET, empty Galpha vs GDP-bound full form), HEK293 membranes; assay type: biochemical; details: GDP 10 μM
Protocol: (§2) All reagents were diluted in TrisHCl 50 mM pH 7.4, MgCl2 10 mM, NaCl 10 mM, BSA 0.1% buffer. The membranes were prepared 4× to distribute 1 μg/well (except for other specifications). The GDP, GTP or GTPγS nucleotides and test compounds (agonists or antagonists) were pre-mixed and prepared 4× to obtain the final concentrations in the wells mentioned in the graphs. […]
as §1, with “400 μs […]” for “400 μs”

[3] = target: T1, Delta Opioid GPCR; assay: Activation test according to format 2A (TR-FRET, empty Galpha vs GTP/GTPγS-bound full form), HEK293 membranes; assay type: biochemical
[4] = tested on: Galpha protein; assay: Binding specificity of detection ligands for the forms of the Galpha protein
Protocol: In order to evaluate the selectivity of antibodies between the different forms of the Galphai1 protein (GDP-bound full form vs. GTPgS-bound full form vs. empty form), the test was performed in parallel on TST-Galphai1 protein conditions pre-incubated in the buffer containing either GDP at 1 μM, GTPgS at 1 μM or no nucleotide. The best hybridomas were then cloned with a limit dilution step to obtain hybridoma clones.
• the anti-Galphai antibody SC13533 was purchased from Santa Cruz Biotechnology (catalogue number SC13533). […] The antibodies were labeled with compatible fluorescent probes for TR-FRET detection (red—d2 acceptor or Lumi4Tb donor).

[5] = target: T2, 5HT1A (Homo sapiens, UniProt P08908); assay: Activation test format 2B on 5HT1A membranes (Example 7); assay type: biochemical; details: HEK293 membranes 10 μg/well, GTPγS 100 nM, agonist 1 μM (FIG. 10)
T2 construct: purchased Perkin Elmer RBHS1AM400UA; host or cells: HEK293-EBNA
T2 sequence (P08908 1-422): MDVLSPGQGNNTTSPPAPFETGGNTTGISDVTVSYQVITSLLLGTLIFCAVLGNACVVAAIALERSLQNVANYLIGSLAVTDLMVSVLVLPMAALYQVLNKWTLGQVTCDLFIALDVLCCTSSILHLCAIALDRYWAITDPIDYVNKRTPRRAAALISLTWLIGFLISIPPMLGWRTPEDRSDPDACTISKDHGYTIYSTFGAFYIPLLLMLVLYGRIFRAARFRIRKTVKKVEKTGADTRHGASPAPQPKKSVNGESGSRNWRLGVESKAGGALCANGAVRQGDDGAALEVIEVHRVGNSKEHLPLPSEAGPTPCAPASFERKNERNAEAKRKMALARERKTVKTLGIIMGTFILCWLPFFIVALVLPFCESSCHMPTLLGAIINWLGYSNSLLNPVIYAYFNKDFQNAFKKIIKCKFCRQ
Protocol: as §2, §1

## C=CCN1C[C@H](C)N([C@@H](c2ccccc2)c2ccc(C(=O)N(CC)CC)cc2)C[C@H]1C [SNC162]
[1]; Example 7, CHO-K1 membranes 10 μg/well, GTPγS 100 nM, agonist 1 μM (FIG. 10)
  TR-FRET signal (HTRF ratio) generated by stimulation with the agonist: decrease in the TR-FRET signal
[1]; Example 7, HEK293 membranes 10 μg/well, GTPγS 100 nM, agonist 1 μM, KB1753-biotin/SA-XL + SC13533-Lumi4Tb (FIG. 10)
  TR-FRET signal (HTRF ratio) generated by stimulation with the receptor agonist: decrease in the TR-FRET signal
[1]; Example 9, format 2B, GTPγS 10 nM, agonist in increasing concentration, DSV36S-Lumi4Tb/SC13533-d2 (FIG. 12B)
  TR-FRET signal (HTRF ratio) generated by stimulation with the agonist: decrease in the TR-FRET signal
[1]; Example 10, format 2B, GTPγS 10 nM, agonist in increasing concentration, sdAb-d2 ligand pairs (FIGS. 13B-19B)
  TR-FRET signal (HTRF ratio) generated by stimulation with the agonist: decrease in the TR-FRET signal
[1]; format 2B, HEK293 membranes, GTPγS 10 nM, agonist in increasing concentration, detection ligand pairs of Examples 1-4 (FIGS. 4B-7B)
  TR-FRET signal (HTRF ratio) generated by stimulation with the agonist: decrease in the TR-FRET signal
[2]; agonist in increasing concentration, DSV39S-d2 + DSV26S-Lumi4Tb (FIG. 8B)
  TR-FRET signal (HTRF ratio) generated by stimulation with the agonist: increase in the TR-FRET signal
[3]; Example 8, GTP 50, 1000 or 20000 nM, agonist 1 μM, membranes 1 μg/well, amplitude lower than with GTPγS (FIG. 11)
  TR-FRET signal (HTRF ratio) generated by stimulation with the agonist: increase in the TR-FRET signal
[3]; Example 8, GTPγS 50, 1000 or 20000 nM, agonist 1 μM, membranes 1 μg/well (FIG. 11)
  TR-FRET signal (HTRF ratio) generated by stimulation with the agonist: increase in the TR-FRET signal
[3]; GTPγS 10 nM, agonist in increasing concentration, DSV39S-d2 + DSV26S-Lumi4Tb (FIG. 9B)
  TR-FRET signal (HTRF ratio) generated by stimulation with the agonist: increase in the TR-FRET signal

## Ser-Ser-Arg-Gly-Tyr-Tyr-His-Gly-Ile-Trp-Val-Gly-Glu-Glu-Gly-Arg-Leu-Ser-Arg (SSRGYYHGIWVGEEGRLSR; also: biotinylated, place not given here) [KB1753, biotinylated form generated by Cisbio Bioassays]
[4]
  Form of the Galpha protein specifically bound (empty, GDP-bound, GTP/non-hydrolyzable GTP-bound): specifically binds the form of the Galpha GTP or GTP protein that is non-hydrolyzable or slowly hydrolyzable relative to the forms of the empty Galpha protein and GDP; also recorded: specifically recognizes the full Galpha protein bound to GTP

## Oc1ccc2c3c1O[C@H]1c4[nH]c5ccccc5c4C[C@@]4(O)[C@@H](C2)N(CC2CC2)CC[C@]314 [Naltrindole]
[1]; Example 9, format 2B, GTPγS 10 nM, antagonist in increasing concentration (FIG. 12B)
  TR-FRET signal (HTRF ratio), inhibition of agonist activation by antagonist: increase in the TR-FRET signal
[1]; Example 10, format 2B, GTPγS 10 nM, antagonist in increasing concentration, FIGS. 13B-18B
  TR-FRET signal (HTRF ratio), inhibition of agonist activation by antagonist: increase in the TR-FRET signal
[1]; format 2B, HEK293 membranes, GTPγS 10 nM, antagonist in increasing concentration, Examples 1-3
  TR-FRET signal (HTRF ratio), inhibition of agonist activation by antagonist: increase in the TR-FRET signal
[2]; SNC162 fixed 10 nM, antagonist in increasing concentration (FIG. 8B)
  TR-FRET signal (HTRF ratio), inhibition of agonist activation by antagonist: decrease in the TR-FRET signal
[3]; GTPγS 10 nM, SNC162 fixed 10 nM, antagonist in increasing concentration (FIG. 9B)
  TR-FRET signal (HTRF ratio), inhibition of agonist activation by antagonist: decrease in the TR-FRET signal

## NCCc1c[nH]c2ccc(O)cc12 [serotonin]
[5]
  TR-FRET signal (HTRF ratio) generated by stimulation with the receptor agonist: decrease in the TR-FRET signal

B1: DSV36S: anti-Galphai antibody generated by Cisbio Bioassays (antibody, V domains shown)
VH: EVQLQQSGAELVRPGALVKLSCKASGFNIKDYYMHWVKQRPEQGLEWIGWIDPENGNTIYDPKFQGKASITADTSSNTAYLQLSSLTSEDTAVYYCTRGGGYYSDWYFDVWGAGTTVTVSS
VL: QIVLTQSPAIMSASPGEKVTMTCSASSSVSYMHWYQQKSGTSPKRWIYDTSKLASGVPARFSGSGSGTSYSLTISSMEAEDAATYYCQQWSSNPPITFGAGTKLELK
[4]
  Form of the Galpha protein specifically bound (empty, GDP-bound, GTP/non-hydrolyzable GTP-bound): specifically binds the form of the Galpha GTP or GTP protein that is non-hydrolyzable or slowly hydrolyzable relative to the forms of the empty Galpha protein and GDP
